From patent US12503438B2, “Compounds for the treatment of kinase-dependent disorders” (Exelixis, Inc., priority 2019, dated 2025) come the findings set out here.

A word on the IC50: it is the concentration at which inhibition is half-maximal.

A value given as a limit tells only on which side of the number the result lay.

In one assay the target is Met (Homo sapiens, UniProt P08581). Briefly: Met autophosphorylation ELISA in PC-3 cells. Also noted: endogenous in cells; host or cells: PC-3 prostate cancer cells (ATCC #CRL-1435). The assay is classed as cell-based. The following applies: cellular activity, HGF-stimulated, phospho-Met ELISA, read-out: c-Met IC50. A digest of the protocol: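 Phospho-Met (panTyr) sandwich ELISA on lysates of PC-3 cells given 100 ng/mL HGF for 10 min after 1 h compound exposure (8-point curve, 0.3% DMSO) following 3 h serum starvation. Normalised to HGF-stimulated DMSO and reference-inhibitor wells; 4-parameter logistic IC50.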

The next assay addresses T1, Human Mer (Homo sapiens, UniProt Q12866).
T1 construct: Human Mer (residues R557-E882 with H628Q and R794A, 0.7 nM); purchased Eurofins Pharma Discovery Services UK Limited (KinaseProfiler service)
T1 sequence (Q12866 557-882 limits assumed): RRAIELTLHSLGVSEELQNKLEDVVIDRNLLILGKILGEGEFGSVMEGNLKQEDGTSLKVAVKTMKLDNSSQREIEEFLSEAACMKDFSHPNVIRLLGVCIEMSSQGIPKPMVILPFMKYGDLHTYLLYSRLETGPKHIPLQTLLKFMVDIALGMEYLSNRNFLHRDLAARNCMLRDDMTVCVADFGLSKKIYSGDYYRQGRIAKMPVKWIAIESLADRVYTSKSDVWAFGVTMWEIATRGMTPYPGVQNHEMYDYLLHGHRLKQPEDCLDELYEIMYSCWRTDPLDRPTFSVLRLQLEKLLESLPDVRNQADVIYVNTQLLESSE
Briefly: Human Mer kinase assay (33P-phosphoryl transfer radiometric, KinaseProfiler). The conditions noted are these: biochemical activity; 10 μM ATP. Here is the method: Kinase activity and compound inhibition were investigated using the ^33P-Phosphoryl transfer radiometric kinase assay, performed using the KinaseProfiler™ service of Eurofins Pharma Discovery Services UK Limited. Dose-response experiments were performed using nine compound concentrations in a 96-well microtiter plate. For each assay, all compounds were prepared to a 50× final assay concentration (50 μM) in 100% DMSO, then diluted in a half-log series, with the final top concentration at 1 μM. This working stock of the compound was added to the assay well as the first component in the reaction, followed by the remaining components as detailed in the following assay protocols below. The positive control wells (100% kinase activity) contain all components of the reaction including 2% DMSO (control for solvent effects), except the compound of interest. Blank wells contain all components of the reaction, with the reference inhibitor, staurosporine. This reference compound was used to abolish kinase activity and generated the 0% kinase activity base-line. IC50 values were calculated by nonlinear regression analysis using the sigmoidal dose-response (variable slope) curve fit on XLFit version 5.3 (ID Business Solutions).
Human Mer (residues R557-E882 with H628Q and R794A, 0.7 nM) was incubated with 8 mM MOPS pH 7.0, 0.2 mM EDTA, 30 mM NaCl, 250 μM GGMEDIYFEFMGGKKK, 10 mM magnesium acetate and 10 μM [y-^33P-ATP]. The reaction was initiated by the addition of the Mg/ATP mix. After incubation for 40 minutes at room temperature, the reaction was stopped by the addition of phosphoric acid to a concentration of 0.5%. A reaction aliquot of 10 μL was then spotted onto a P30 filtermat and washed four times for 4 minutes in 0.425% phosphoric acid and once in methanol prior to drying and scintillation counting. Incorporated ^33P was measured using the Wallac Microbeta scintillation counter (Perkin Elmer).

Chain of Met (P08581 25-1390): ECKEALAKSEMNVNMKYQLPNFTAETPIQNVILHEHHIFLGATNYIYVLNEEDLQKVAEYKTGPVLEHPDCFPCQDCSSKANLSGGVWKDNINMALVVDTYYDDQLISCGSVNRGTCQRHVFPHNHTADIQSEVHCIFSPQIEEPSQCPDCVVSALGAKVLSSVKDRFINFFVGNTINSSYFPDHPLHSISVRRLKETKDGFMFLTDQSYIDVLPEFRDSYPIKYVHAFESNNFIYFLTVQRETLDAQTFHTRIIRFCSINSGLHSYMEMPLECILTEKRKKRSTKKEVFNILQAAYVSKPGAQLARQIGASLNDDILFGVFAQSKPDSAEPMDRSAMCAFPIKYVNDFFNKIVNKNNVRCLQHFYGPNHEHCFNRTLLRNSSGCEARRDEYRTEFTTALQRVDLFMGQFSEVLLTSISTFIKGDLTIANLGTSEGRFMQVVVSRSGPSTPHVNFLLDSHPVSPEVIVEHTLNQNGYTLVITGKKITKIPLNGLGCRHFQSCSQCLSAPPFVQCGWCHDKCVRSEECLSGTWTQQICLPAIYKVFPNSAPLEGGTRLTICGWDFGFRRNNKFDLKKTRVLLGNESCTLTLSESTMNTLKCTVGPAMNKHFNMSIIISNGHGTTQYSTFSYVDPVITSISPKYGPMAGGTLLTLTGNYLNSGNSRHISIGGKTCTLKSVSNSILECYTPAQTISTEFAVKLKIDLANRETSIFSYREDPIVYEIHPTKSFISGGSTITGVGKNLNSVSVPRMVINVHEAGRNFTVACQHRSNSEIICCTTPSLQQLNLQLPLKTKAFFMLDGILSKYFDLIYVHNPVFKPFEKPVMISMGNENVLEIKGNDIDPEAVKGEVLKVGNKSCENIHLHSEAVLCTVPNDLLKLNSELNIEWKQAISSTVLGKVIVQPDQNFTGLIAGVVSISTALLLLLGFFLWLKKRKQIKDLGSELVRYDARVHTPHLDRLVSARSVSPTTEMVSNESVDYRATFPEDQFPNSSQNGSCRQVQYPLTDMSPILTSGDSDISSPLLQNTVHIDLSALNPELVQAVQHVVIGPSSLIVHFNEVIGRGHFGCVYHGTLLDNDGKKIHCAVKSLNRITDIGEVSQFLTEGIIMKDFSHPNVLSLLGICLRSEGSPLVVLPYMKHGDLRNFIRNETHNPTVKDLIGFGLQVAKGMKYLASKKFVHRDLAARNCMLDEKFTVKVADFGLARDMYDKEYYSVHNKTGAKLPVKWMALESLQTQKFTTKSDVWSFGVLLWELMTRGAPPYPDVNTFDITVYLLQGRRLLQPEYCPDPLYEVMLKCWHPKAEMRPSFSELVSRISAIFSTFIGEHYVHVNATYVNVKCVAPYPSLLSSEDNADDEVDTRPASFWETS

Consider `O=C(Nc1ccc(F)cc1)C1(C(=O)Nc2ccc(Oc3ccnc4cc(-c5ccnnc5)ccc34)cc2)CC1` [Compound 28, 1-N′-(4-Fluorophenyl)-1-N-[4-(7-pyridazin-4-ylquinolin-4-yl)oxyphenyl]cyclopropane-1,1-dicarboxamide], for which the IC50 on Met and against Human Mer was no more than 10 nM each time.

`O=C(Nc1ccc(F)cc1)C1(C(=O)Nc2ccc(Oc3ccnc4cc(-c5cnoc5)ccc34)cc2)CC1` [Compound 57, 1-N′-(4-Fluorophenyl)-1-N-[4-[7-(1,2-oxazol-4-yl)quinolin-4-yl]oxyphenyl]cyclopropane-1,1-dicarboxamide]: the IC50 at Met is 10 to 100 nM; at Human Mer it was no more than 10 nM.

With `CN(C(=O)C1(C(=O)Nc2ccc(Oc3ccnc4cc(-c5cnn(C)c5)ccc34)cc2)CC1)c1ccc(F)cc1` [Compound 82A, 1-N′-(4-Fluorophenyl)-1-N′-methyl-1-N-[4-[7-(1-methylpyrazol-4-yl)quinolin-4-yl]oxyphenyl]cyclopropane-1,1-dicarboxamide], the IC50 on Met was greater than 300 nM; at Human Mer, 100 to 1000 nM.

As to `O=C(Nc1ccc(F)cc1)C1(C(=O)Nc2ccc(Oc3ccnc4cc(-c5cn[nH]c5)ccc34)cc2)CC1` [Compound 67, 1-N′-(4-Fluorophenyl)-1-N-[4-[7-(1H-pyrazol-4-yl)quinolin-4-yl]oxyphenyl]cyclopropane-1,1-dicarboxamide], the IC50 at Met and at Human Mer was no more than 10 nM throughout.

On to `Cn1cc(-c2ccc3c(Oc4ccc(NC(=O)C5(C(=O)N6CCc7cc(F)ccc76)CC5)cc4)ccnc3c2)cn1` [Compound 81, 1-(5-Fluoro-2,3-dihydroindole-1-carbonyl)-N-[4-[7-(1-methylpyrazol-4-yl)quinolin-4-yl]oxyphenyl]cyclopropane-1-carboxamide], for which the IC50 at Met and at Human Mer was 10 to 100 nM each time.

On to `Cn1cnc(-c2ccc3c(Oc4ccc(NC(=O)C5(C(=O)Nc6ccc(F)cc6)CC5)cc4)ccnc3c2)c1` [Compound 69, 1-N′-(4-Fluorophenyl)-1-N-[4-[7-(1-methylimidazol-4-yl)quinolin-4-yl]oxyphenyl]cyclopropane-1,1-dicarboxamide], for which the IC50 on Met and on Human Mer was no more than 10 nM in each case.

`O=C(Nc1ccc(F)cc1)C1(C(=O)Nc2ccc(Oc3ccnc4cc(-c5cnn[nH]5)ccc34)cc2)CC1` [Compound 65, 1-N′-(4-Fluorophenyl)-1-N-[4-[7-(1H-triazol-5-yl)quinolin-4-yl]oxyphenyl]cyclopropane-1,1-dicarboxamide]: the concentration for half-maximal inhibition (IC50) was greater than 300 nM on Met and 100 to 1000 nM at Human Mer.

As for `O=C(Nc1ccc(F)cc1)C1(C(=O)Nc2ccc(Oc3ccnc4cc(-c5ncc[nH]5)ccc34)cc2)CC1` [Compound 74, 1-N′-(4-Fluorophenyl)-1-N-[4-[7-(1H-imidazol-2-yl)quinolin-4-yl]oxyphenyl]cyclopropane-1,1-dicarboxamide], the half-inhibitory concentration (IC50) at Met and at Human Mer was no more than 10 nM throughout.

With `O=C(Nc1ccc(F)cc1)C1(C(=O)Nc2ccc(Oc3ccnc4cc(-c5cnn(C(F)(F)F)c5)ccc34)cc2)CC1` [Compound 12, 1-N′-(4-Fluorophenyl)-1-N-[4-[7-[1-(trifluoromethyl)pyrazol-4-yl]quinolin-4-yl]oxyphenyl]cyclopropane-1,1-dicarboxamide], the values for the IC50 on Met and against Human Mer were 10 to 100 nM and no more than 10 nM, respectively.

With `O=C(Nc1ccc(F)cc1)C1(C(=O)Nc2ccc(Oc3ccnc4cc(-c5ncco5)ccc34)cc2)CC1` [Compound 66, 1-N′-(4-Fluorophenyl)-1-N-[4-[7-(1,3-oxazol-2-yl)quinolin-4-yl]oxyphenyl]cyclopropane-1,1-dicarboxamide], the half-inhibitory concentration (IC50) on Met is 10 to 100 nM; at Human Mer, no more than 10 nM.

For `O=C(Nc1ccc(F)cc1)C1(C(=O)Nc2ccc(Oc3ccnc4cc(-c5cnn(CC(F)(F)F)c5)ccc34)cc2)CC1` [Compound 16, 1-N′-(4-Fluorophenyl)-1-N-[4-[7-[1-(2,2,2-trifluoroethyl)pyrazol-4-yl]quinolin-4-yl]oxyphenyl]cyclopropane-1,1-dicarboxamide], the IC50 at Met is 10 to 100 nM; on Human Mer, no more than 10 nM.
